Measurements published in US10105357B2, “Indication of antibiotic drugs for preparation of cancer inhibition pharmaceutical composition” (LAUNX BIOMEDICAL CO., LTD., priority 2014, dated 2018).
Where a name gives a salt, the structure may show the parent alone. Read-outs that look alike come from different tables or passages of the source.

Experiments:
Assay type in all cases: cell-based, human
[1] = system: HI650 (Lung Adenocarcinoma); experiment: Cell viability analysis, lung cancer HI650; details: for viability at 10 µM: Homo sapiens
[2] = system: A549 (Lung Adenocarcinoma); experiment: Cell viability analysis, lung cancer A549; details: for viability at 10 µM: Homo sapiens
[3] = system: AGS (Gastric Adenocarcinoma); experiment: Cell viability analysis, gastric cancer AGS; details: for viability at 10 µM: Homo sapiens
[4] = system: MKN-45 (Gastric Adenocarcinoma); experiment: Cell viability analysis, gastric cancer MKN-45; details: for viability at 10 µM: Homo sapiens
[5] = system: HepG2 (Hepatocellular Carcinoma); experiment: Cell viability analysis, hepatic cancer HepG2; details: for viability at 10 µM: Homo sapiens
[6] = system: LoVo (Colorectal Adenocarcinoma); experiment: Cell viability analysis, colon cancer LoVo; details: for viability at 10 µM: Homo sapiens, LoVo
[7] = system: A375 (Amelanotic Melanoma); experiment: Cell viability analysis, skin cancer A375; details: for viability at 10 µM: Homo sapiens
[8] = system: HeLa (Cervix Adenocarcinoma); experiment: Cell viability analysis, cervical cancer HeLa; details: for viability at 10 µM: Homo sapiens, HeLa
[9] = system: PC3 (p53−) (Prostate Adenocarcinoma); experiment: Cell viability analysis, prostate cancer PC3; details: for viability at 10 µM: Homo sapiens
[10] = system: TSGH-8301 (Urinary Bladder Carcinoma); experiment: Cell viability analysis, bladder cancer TSGH-8301; details: for viability at 10 µM: Homo sapiens
[11] = system: MCF7 (Mammary Gland, Adenocarcinoma); experiment: Cell viability analysis, breast cancer MCF7; details: for viability at 10 µM: Homo sapiens
[12] = system: HL-60 (Acute Promyelocytic Leukemia); experiment: Cell viability analysis, leukemia HL-60; details: for viability at 10 µM: Homo sapiens
[13] = drug 10 μM, 72 hours, WST-1, OD450 nm
[14] = NCI-H1650, 72 h, read-out: cell viability (survival rate), H1650, drug 10 μM, 72 hours, WST-1, OD450 nm
[15] = A549, 72 h, read-out: cell viability (survival rate), A549, drug 10 μM, 72 hours, WST-1, OD450 nm
[16] = 72 h, read-out: cell viability (survival rate), AGS, drug 10 μM, 72 hours, WST-1, OD450 nm
[17] = HepG2, 72 h, read-out: cell viability (survival rate), HepG2, drug 10 μM, 72 hours, WST-1, OD450 nm
[18] = 72 h, read-out: cell viability (survival rate), LoVo, drug 10 μM, 72 hours, WST-1, OD450 nm
[19] = A-375, 72 h, read-out: cell viability (survival rate), A375, drug 10 μM, 72 hours, WST-1, OD450 nm
[20] = 72 h, read-out: cell viability (survival rate), HeLa, drug 10 μM, 72 hours, WST-1, OD450 nm
[21] = 72 h, read-out: cell viability (survival rate), PC3, drug 10 μM, 72 hours, WST-1, OD450 nm
[22] = 72 h, read-out: cell viability (survival rate), TSGH, drug 10 μM, 72 hours, WST-1, OD450 nm
[23] = MCF7, 72 h, read-out: cell viability (survival rate), MCF7, drug 10 μM, 72 hours, WST-1, OD450 nm
[24] = HL-60, 72 h, read-out: cell viability (survival rate), HL-60, drug 10 μM, 72 hours, WST-1, OD450 nm
[25] = MKN-45, 72 h, read-out: cell viability (survival rate), MKN-45, drug 10 μM, 72 hours, WST-1, OD450 nm

CN(C)CCCN1c2ccccc2CCc2ccc(Cl)cc21.Cl [Clomipramine HCl (Anafranil)]
cell viability (survival rate), H1650 [1, 13]: 47.5 | cell viability (survival rate), A549 [2, 13]: 69.1 | cell viability (survival rate), AGS [3, 13]: 60.2 | cell viability (survival rate), MKN-45 [4, 13]: 70.5 | cell viability (survival rate), HepG2 [5, 13]: 115.6 | cell viability (survival rate), LoVo [6, 13]: 87.1 | cell viability (survival rate), A375 [7, 13]: 88.9 | cell viability (survival rate), HeLa [8, 13]: 167.6 | cell viability (survival rate), PC3 [9, 13]: 75.8 | cell viability (survival rate), TSGH [10, 13]: 46.2 | cell viability (survival rate), MCF7 [11, 13]: 75.7 | cell viability (survival rate), HL-60 [12, 13]: 82.7

Nc1nccs1 [Aminothiazole]
viability at 10 µM [1, 14]: 68.7% | viability at 10 µM [2, 15]: 56.1% | viability at 10 µM [3, 16]: 62.3% | viability at 10 µM [5, 17]: 90.4% | viability at 10 µM [6, 18]: 86.4% | viability at 10 µM [7, 19]: 78.4% | viability at 10 µM [8, 20]: 65.7% | viability at 10 µM [9, 21]: 93.8% | viability at 10 µM [10, 22]: 86% | viability at 10 µM [11, 23]: 108% | viability at 10 µM [12, 24]: 121%

CCOC(=O)CCC(=O)O[C@H]1[C@H](O[C@@H]2[C@@H](C)[C@H](O[C@H]3C[C@@](C)(OC)[C@@H](O)[C@H](C)O3)[C@@H](C)C(=O)O[C@H](CC)[C@@](C)(O)[C@H](O)[C@@H](C)C(=O)[C@H](C)C[C@@]2(C)O)O[C@H](C)C[C@@H]1N(C)C [Erythromycin Ethylsuccinate]
viability at 10 µM ([1]; NCI-H1650, drug 10 μM, 72 hours, WST-1, OD450 nm, read-out: cell viability (survival rate), H1650): 83.8% | viability at 10 µM ([2]; A549, drug 10 μM, 72 hours, WST-1, OD450 nm, read-out: cell viability (survival rate), A549): 90% | viability at 10 µM ([3]; drug 10 μM, 72 hours, WST-1, OD450 nm, read-out: cell viability (survival rate), AGS): 111% | viability at 10 µM ([4]; MKN-45, drug 10 μM, 72 hours, WST-1, OD450 nm, read-out: cell viability (survival rate), MKN-45): 129% | viability at 10 µM ([5]; HepG2, drug 10 μM, 72 hours, WST-1, OD450 nm, read-out: cell viability (survival rate), HepG2): 97.1% | viability at 10 µM ([6]; drug 10 μM, 72 hours, WST-1, OD450 nm, read-out: cell viability (survival rate), LoVo): 80% | viability at 10 µM ([7]; A-375, drug 10 μM, 72 hours, WST-1, OD450 nm, read-out: cell viability (survival rate), A375): 75% | viability at 10 µM ([8]; drug 10 μM, 72 hours, WST-1, OD450 nm, read-out: cell viability (survival rate), HeLa): 148% | viability at 10 µM ([9]; drug 10 μM, 72 hours, WST-1, OD450 nm, read-out: cell viability (survival rate), PC3): 112% | viability at 10 µM ([10]; drug 10 μM, 72 hours, WST-1, OD450 nm, read-out: cell viability (survival rate), TSGH): 125% | viability at 10 µM ([11]; MCF7, drug 10 μM, 72 hours, WST-1, OD450 nm, read-out: cell viability (survival rate), MCF7): 88.2% | viability at 10 µM ([12]; HL-60, drug 10 μM, 72 hours, WST-1, OD450 nm, read-out: cell viability (survival rate), HL-60): 83.6%

CCCc1nc(C)c2c(=O)[nH]c(-c3cc(S(=O)(=O)N4CCN(CC)CC4)ccc3OCC)nn12 [Vardenafil (Vivanza), Vardenafil]
viability at 10 µM [1, 14]: 67.2% | viability at 10 µM [2, 15]: 96.5% | viability at 10 µM [3, 16]: 86.5% | viability at 10 µM [4, 25]: 68.2% | viability at 10 µM [5, 17]: 81.8% | viability at 10 µM [6, 18]: 106% | viability at 10 µM [7, 19]: 73.2% | viability at 10 µM [8, 20]: 61.7% | viability at 10 µM [10, 22]: 57.8% | viability at 10 µM [11, 23]: 117% | viability at 10 µM [12, 24]: 127%

Clc1ccc(CSC(Cn2ccnc2)c2ccc(Cl)cc2Cl)cc1 (stereo not shown) [Sulconazole Nitrate]
viability at 10 µM [1, 14]: 63.4% | viability at 10 µM [2, 15]: 50.7% | viability at 10 µM [3, 16]: 83.1% | viability at 10 µM [4, 25]: 53.2% | viability at 10 µM [5, 17]: 88.2% | viability at 10 µM [6, 18]: 73.6% | viability at 10 µM [7, 19]: 44.9% | viability at 10 µM [8, 20]: 62.1% | viability at 10 µM [9, 21]: 65.7% | viability at 10 µM [10, 22]: 55% | viability at 10 µM [11, 23]: 44.4% | viability at 10 µM [12, 24]: 64.1%

Nc1nc(NC2CC2)c2ncn([C@H]3C=C[C@@H](CO)C3)c2n1 [Abacavir sulfate]
viability at 10 µM ([1]; NCI-H1650, 72 h, drug 10 μM, 72 hours, WST-1, OD450 nm, read-out: cell viability (survival rate), H1650): 67% | viability at 10 µM ([2]; A549, 72 h, drug 10 μM, 72 hours, WST-1, OD450 nm, read-out: cell viability (survival rate), A549): 87% | viability at 10 µM ([3]; 72 h, drug 10 μM, 72 hours, WST-1, OD450 nm, read-out: cell viability (survival rate), AGS): 97.1% | viability at 10 µM ([4]; MKN-45, 72 h, drug 10 μM, 72 hours, WST-1, OD450 nm, read-out: cell viability (survival rate), MKN-45): 94.6% | viability at 10 µM ([5]; HepG2, 72 h, drug 10 μM, 72 hours, WST-1, OD450 nm, read-out: cell viability (survival rate), HepG2): 82.6% | viability at 10 µM [6, 18]: 100% | viability at 10 µM ([7]; A-375, 72 h, drug 10 μM, 72 hours, WST-1, OD450 nm, read-out: cell viability (survival rate), A375): 57.2% | viability at 10 µM ([8]; 72 h, drug 10 μM, 72 hours, WST-1, OD450 nm, read-out: cell viability (survival rate), HeLa): 84.2% | viability at 10 µM ([9]; 72 h, drug 10 μM, 72 hours, WST-1, OD450 nm, read-out: cell viability (survival rate), PC3): 76% | viability at 10 µM ([10]; 72 h, drug 10 μM, 72 hours, WST-1, OD450 nm, read-out: cell viability (survival rate), TSGH): 148% | viability at 10 µM ([11]; MCF7, 72 h, drug 10 μM, 72 hours, WST-1, OD450 nm, read-out: cell viability (survival rate), MCF7): 79.6% | viability at 10 µM ([12]; HL-60, 72 h, drug 10 μM, 72 hours, WST-1, OD450 nm, read-out: cell viability (survival rate), HL-60): 108%
